Read-outs that look alike come from different tables or passages of the source.
Tests used:
P2X3 [1] = test: Mean pIC50s at P2X3 from Carter et al (literature); format: cell-based
P2X3 [2] = conditions: oxygen-linked analogs; from Carter et al, Bioorg Med Chem Lett 2009; cited from earlier work

SMILES	Selectivity, X = O (P2X3 [1])	P2X3 mean pIC50, X = O (P2X3 [2])	Selectivity, X = O (P2X3 [1]; potency ratio P2X3 over P2X2/3 from the cited pIC50s)
COc1cc(C(C)C)c(Oc2cnc(N)nc2N)cc1S(C)(=O)=O [C, X = O]	10	7.0	
COc1cc(C(C)C)c(Oc2cnc(N)nc2N)cc1Cl [D, X = O]		7.6	4
COc1cc(Oc2cnc(N)nc2N)c(C(C)C)cc1OC [Row A, X = O, reference compound]		7.6	
COc1cc(C(C)C)c(Oc2cnc(N)nc2N)cc1I [B, X = O]	8	8.0	
